Experimental findings from publication PMC5764337 (PLoS ONE, 2018) are described below.

SMILES strings stand for the structures.

Common to all, as to type: biochemical
The target of assay [1] is B/YAM-A395T virus NA (Influenza B virus, UniProt C0LT34, A395T).
Assay [2] concerns the target B/YAM-A395V virus NA (Influenza B virus, UniProt A0A1W5M8K9, A395V).
The target of assay [3] is B/YAM-A395D virus NA (Influenza B virus, UniProt C0LT34, A395D).
In assay [4] the target is B/YAM-D342S virus NA (Influenza B virus, UniProt Q90021, D342S).
In assay [5] the target is A/PR8-I222V virus NA (Influenza A virus (H3N2), UniProt V5P6L4, I222V).
Assay [6] has as its target A/PR8-S331G virus NA (Influenza A virus (H3N2), UniProt A0A193ACB1, S331G).
Assay [7] concerns the target A/PR8-S331R virus NA (Influenza A virus (H3N2), UniProt A0A193ACB1, S331R).
Where [8] appears, read: read-out: NA enzyme inhibition assay (mean IC50 ± SD).

Consider `CCC(CC)[C@H](NC(C)=O)[C@@H]1[C@H](O)[C@@H](C(=O)O)C[C@H]1N=C(N)N` [Peramivir, peramivir], for which the “fold increase in IC50 over B/BR/60/08” value in assay [1] is listed as 0.6 ± 0.08 (1.2) fold; in assay [2] it was 0.8 ± 0.12 (1.6) fold; in assay [3] it was 0.5 ± 0.36 (1) fold; in assay [4], 0.4 ± 0.12 (0.8) fold. Besides, the IC50 turned out to be 0.6 nM in assay [1] (setting [8]); 0.8 nM in assay [2] (setting [8]); 0.5 nM in assay [3] (setting [8]); 0.4 nM in assay [4] (setting [8]); 0.1 nM in assay [5] (setting [8]); 0.3 nM in assay [6] (setting [8]). For the same compound, the IC50 in assay [7] (setting [8]) stood at 0.2 nM. Besides, the “fold increase in IC50 over A/PR8-WT” value in assay [5] is reported as 0.1 ± 0.01 (1) fold; in assay [6] it was 0.3 ± 0.3 (3) fold; in assay [7], 0.2 ± 0.06 (2) fold.
